pIC50: −log10 of the molar value. In brackets after ≈: the same amount, converted by molar mass.
Assays:
[1] = Aqueous solubility in PBS, pH 7.4; type: physicochemical; details: phosphate buffered saline, pH 7.4, aqueous buffer, thermodynamic from solid, pH 7.4 phosphate buffered saline, 24 hours, amorphous or crystalline material; read-out: Aqu. Solubility
Procedure, shortened: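 Excess solid suspended at 0.5 mg/mL in PBS pH 7.4 and stirred 24 hours. Filtrate (0.45 μm) diluted 1:1 with ACN:H2O and quantified by UPLC against a standard curve; residual solid phase checked by XRPD and PLM.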

[2] = system: HIV-1 wild-type (R8) virus; experiment: Viral KINetics in Green cells (VIKING) assay, HIV-1 replication in MT4-GFP reporter cells; type: cell-based; details: Human immunodeficiency virus 1, 10% normal human serum, MT4-GFP cells, HIV-1 wild-type (R8); read-out: Viking (10% NHS), IC50
Procedure, shortened: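 MT4-GFP cells infected overnight with HIV-1 R8 at MOI ~0.01, then added to compound plates in RPMI with 10% normal human serum; 10-point 3-fold dilutions (typically 4 μM-0.2 nM). Green cells counted at ~48 h and 72 h; reproductive ratio (72 h/48 h) gave % inhibition, IC50 by 4-parameter fit.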

solubility at 24 h [1] [µg/mL] | SMILES | pIC50 [2]
37 (≈ 81.3 µM) | C#C[C@]1(COC(=O)CCCc2ccccc2)O[C@@H](n2ccc3c(N)nc(Cl)nc32)C[C@@H]1O [Example 129] | 8.51
365 (≈ 897 µM) | C#C[C@]1(COC(=O)CC(C)(C)C)O[C@@H](n2ccc3c(N)nc(Cl)nc32)C[C@@H]1O [Example 89] | 7.54
66 (≈ 149 µM) | C#C[C@]1(COC(=O)OCc2ccccc2)O[C@@H](n2ccc3c(N)nc(Cl)nc32)C[C@@H]1O [Example 114, ((2R,3S,5R)-5-(4-amino-2-chloro-7H-pyrrolo[2,3-d]pyrimidin-7-yl)-2-ethynyl-3-hydroxytetrahydrofuran-2-yl)methyl benzyl carbonate] | 8.41
< 1 | C#C[C@]1(CO)O[C@@H](n2ccc3c(N)nc(Cl)nc32)C[C@@H]1OC(=O)OCc1ccccc1 [Example 27, (2R,3S,5R)-5-(4-amino-2-chloro-7H-pyrrolo[2,3-d]pyrimidin-7-yl)-2-ethynyl-2-(hydroxymethyl)tetrahydrofuran-3-ylbenzyl carbonate] | 8.51
341 (≈ 803 µM) | C#C[C@]1(COCOC(=O)OC(C)C)O[C@@H](n2ccc3c(N)nc(Cl)nc32)C[C@@H]1O [Example 133] | 8.57
2 (≈ 4.54 µM) | C#C[C@]1(CO)O[C@@H](n2ccc3c(N)nc(Cl)nc32)C[C@@H]1OC(=O)CCc1ccccc1 [Example 81] | 8.48
224 (≈ 614 µM) | C#C[C@]1(CO)O[C@@H](n2ccc3c(N)nc(Cl)nc32)C[C@@H]1OC(=O)CC [Example 65, (2R,3S,5R)-5-(4-amino-2-chloro-7H-pyrrolo[2,3-d]pyrimidin-7-yl)-2-ethynyl-2-(hydroxymethyl)tetrahydrofuran-3-yl propionate] | 7.59
< 1 | C#C[C@]1(CO)O[C@@H](n2ccc3c(N)nc(Cl)nc32)C[C@@H]1OC(=O)OCCCc1ccccc1 [Example 152] | 8.22
239 (≈ 578 µM) | C#C[C@]1(COC(=O)c2ccccn2)O[C@@H](n2ccc3c(N)nc(Cl)nc32)C[C@@H]1O [Example 50] | 8.80
< 1 | C#C[C@]1(CO)O[C@@H](n2ccc3c(N)nc(Cl)nc32)C[C@@H]1OC(=O)OCCc1ccccc1 [Example 64, (2R,3S,5R)-5-(4-amino-2-chloro-7H-pyrrolo[2,3-d]pyrimidin-7-yl)-2-ethynyl-2-(hydroxymethyl)tetrahydrofuran-3-yl phenethyl carbonate] | 8.34
2.3 (≈ 4.48 µM) | C#C[C@]1(COC(=O)OCc2ccccc2)O[C@@H](n2ccc3c(N)nc(Cl)nc32)C[C@@H]1OC(=O)CCC [Example 194] | 7.77
108 (≈ 247 µM) | C#C[C@]1(COC(=O)OCCCCCC)O[C@@H](n2ccc3c(N)nc(Cl)nc32)C[C@@H]1O [Example 120] | 8.42
< 1 | C#C[C@]1(COC(=O)CCCCCCCCC)O[C@@H](n2ccc3c(N)nc(Cl)nc32)C[C@@H]1O [Example 20, ((2R,3S,5R)-5-(4-amino-2-chloro-7H-pyrrolo[2,3-d]pyrimidin-7-yl)-2-ethynyl-3-hydroxytetrahydrofuran-2-yl)methyl decanoate] | 8.55
1.2 (≈ 2.47 µM) | C#C[C@]1(COC(=O)OCc2ccccc2)O[C@@H](n2ccc3c(N)nc(Cl)nc32)C[C@@H]1OC(C)=O [Example 193] | 7.54

More lines, now with the values behind:

SMILES | solubility at 24 h [1] [µg/mL] | pIC50 [2]
C#C[C@]1(CO)O[C@@H](n2ccc3c(N)nc(Cl)nc32)C[C@@H]1OC(=O)CCC [Example 179] | 27 (≈ 71.3 µM) | 7.96
C#C[C@]1(COC(=O)Cc2ccc(Cl)cc2)O[C@@H](n2ccc3c(N)nc(Cl)nc32)C[C@@H]1OC(=O)Cc1ccc(Cl)cc1 [Example 34, (2R,3S,5R)-5-(4-amino-2-chloro-7H-pyrrolo[2,3-d]pyrimidin-7-yl)-2-((2-(4-chlorophenyl)acetoxy)methyl)-2-ethynyltetrahydrofuran-3-yl 2-(4-chlorophenyl)acetate] | < 1 | 8.21
C#C[C@]1(COC(=O)OCc2ccccc2)O[C@@H](n2ccc3c(N)nc(Cl)nc32)C[C@@H]1OC(=O)OCc1cccnc1 [Example 174] | < 1 | 7.89
C#C[C@]1(COC(=O)Cc2ccc(Br)cc2)O[C@@H](n2ccc3c(N)nc(Cl)nc32)C[C@@H]1OC(=O)Cc1ccc(Br)cc1 [Example 227] | < 1 | 7.92
C#C[C@]1(COC(=O)OCc2ccccc2)O[C@@H](n2ccc3c(N)nc(Cl)nc32)C[C@@H]1OC(=O)CCCCC [Example 210] | < 1 | 8.54
C#C[C@]1(COC(=O)OCc2cc[nH]c(=O)c2)O[C@@H](n2ccc3c(N)nc(Cl)nc32)C[C@@H]1OC(=O)OCc1cc[nH]c(=O)c1 [Example 225] | 70 (≈ 115 µM) | 7.89
C#C[C@]1(CO)O[C@@H](n2ccc3c(N)nc(Cl)nc32)C[C@@H]1OC(=O)C1CCCCC1 [Example 77] | 14 (≈ 33.4 µM) | 8.30
C#C[C@]1(COC(=O)CCCCCCCCC)O[C@@H](n2ccc3c(N)nc(Cl)nc32)C[C@@H]1OC(C)=O [Example 48, ((2R,3S,5R)-3-acetoxy-5-(4-amino-2-chloro-7H-pyrrolo[2,3-d]pyrimidin-7-yl)-2-ethynyltetrahydrofuran-2-yl)methyl decanoate] | < 1 | 7.46
C#C[C@]1(COC(=O)OCCCCC[C@@H]2SC[C@@H]3NC(=O)N[C@@H]32)O[C@@H](n2ccc3c(N)nc(Cl)nc32)C[C@@H]1OC(=O)OCC [Example 171] | 1.9 (≈ 2.98 µM) | 7.74
C#C[C@]1(CO)O[C@@H](n2ccc3c(N)nc(Cl)nc32)C[C@@H]1OC(=O)OCCCC [Example 82] | 11 (≈ 26.9 µM) | 8.40
C#C[C@]1(COC(=O)OCCCCCCCCCCCCCC)O[C@@H](n2ccc3c(N)nc(Cl)nc32)C[C@@H]1O [Example 163] | < 1 | 8.46
C#C[C@]1(COC(=O)CCCCCCCCCCCCC)O[C@@H](n2ccc3c(N)nc(Cl)nc32)C[C@@H]1O [Example 87] | < 1 | 8.42
C#C[C@]1(COC(=O)CCCCC)O[C@@H](n2ccc3c(N)nc(Cl)nc32)C[C@@H]1OC(C)=O [Example 185] | 4.2 (≈ 9.36 µM) | 7.77
C#C[C@]1(COCOC(=O)OCCCCCCCCCCCC)O[C@@H](n2ccc3c(N)nc(Cl)nc32)C[C@@H]1O [Example 134] | < 1 | 8.43
C#C[C@]1(CO)O[C@@H](n2ccc3c(N)nc(Cl)nc32)C[C@@H]1OC(=O)OCC1CCCCC1 [Example 154] | < 1 | 8.46
C#C[C@]1(COC(=O)CCCC[C@@H]2SC[C@@H]3NC(=O)N[C@@H]32)O[C@@H](n2ccc3c(N)nc(Cl)nc32)C[C@@H]1OC(=O)CCCc1ccccc1 [Example 190] | < 1 | 8.19
C#C[C@]1(CO)O[C@@H](n2ccc3c(N)nc(Cl)nc32)C[C@@H]1OC(=O)OCCCCCCCCC [Example 38, (2R,3S,5R)-5-(4-amino-2-chloro-7H-pyrrolo[2,3-d]pyrimidin-7-yl)-2-ethynyl-2-(hydroxymethyl)tetrahydrofuran-3-yl nonyl carbonate] | < 1 | 8.10
C#C[C@]1(CO)O[C@@H](n2ccc3c(N)nc(Cl)nc32)C[C@@H]1OC(=O)OCC(CC)CC [Example 78] | 2 (≈ 4.58 µM) | 8.17
C#C[C@]1(CO)O[C@@H](n2ccc3c(N)nc(Cl)nc32)C[C@@H]1OC(=O)CCCCCC [Example 58, (2R,3S,5R)-5-(4-amino-2-chloro-7H-pyrrolo[2,3-d]pyrimidin-7-yl)-2-ethynyl-2-(hydroxymethyl)tetrahydrofuran-3-yl heptanoate] | < 1 | 8.72
C#C[C@]1(COC(=O)OCCCCCCCCC)O[C@@H](n2ccc3c(N)nc(Cl)nc32)C[C@@H]1O [Example 126] | 21 (≈ 43.8 µM) | 8.59
C#C[C@]1(CO)O[C@@H](n2ccc3c(N)nc(Cl)nc32)C[C@@H]1OC(=O)OCCC [Example 80] | 305 (≈ 773 µM) | 8.00
C#C[C@]1(COC(=O)OCc2ccccc2)O[C@@H](n2ccc3c(N)nc(Cl)nc32)C[C@@H]1OC(=O)OCCCC [Example 212] | < 1 | 8.32
C#C[C@]1(COC(=O)CCCC)O[C@@H](n2ccc3c(N)nc(Cl)nc32)C[C@@H]1OC(=O)OC [Example 189] | 23 (≈ 51 µM) | 7.72
C#C[C@]1(COCOC(=O)CCCCCCCCC)O[C@@H](n2ccc3c(N)nc(Cl)nc32)C[C@@H]1O [Example 136] | < 1 | 8.49
C#C[C@]1(COC(=O)OCC23CC4CC(CC(C4)C2)C3)O[C@@H](n2ccc3c(N)nc(Cl)nc32)C[C@@H]1O [Example 115] | < 1 | 8.24
C#C[C@]1(CO)O[C@@H](n2ccc3c(N)nc(Cl)nc32)C[C@@H]1OC(=O)OCCCCCCCC [Example 79] | < 1 | 8.37
C#C[C@]1(COC(=O)OCc2cc[nH]c(=O)c2)O[C@@H](n2ccc3c(N)nc(Cl)nc32)C[C@@H]1OC(=O)OCc1ccccc1 [Example 161] | < 1 | 8.24
C#C[C@]1(CO)O[C@@H](n2ccc3c(N)nc(Cl)nc32)C[C@@H]1OC(=O)C(CCC)CCC [Example 52, (2R,3S,5R)-5-(4-amino-2-chloro-7H-pyrrolo[2,3-d]pyrimidin-7-yl)-2-ethynyl-2-(hydroxymethyl)tetrahydrofuran-3-yl 2-propylpentanoate] | 2.4 (≈ 5.52 µM) | 6.47

From US20240287124A1, “PRODRUGS OF 4'-SUBSTITUTED NUCLEOSIDE REVERSE TRANSCRIPTASE INHIBITORS” (Merck Sharp & Dohme LLC, priority 2023, published 2024)
